Experimental findings from the supplement of paper PMC11061612 are described below.

What all share (experiment): combination Emax (second highest fraction inhibited in the dose matrix, 72 h); higher = more inhibition; extreme values may be limits of the assay
Assay [1] has as its system A3-KAW (B-Cell Non-Hodgkin's Lymphoma). The essentials: (§1)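 Cell lines grown in DMEM/F12 or RPMI with 10% FBS were plated in 1536-well plates and held 24 hours at 37°C, 5% CO2 before 72 hours of exposure to two-drug dose matrices, with DMSO typically at 0.2%. CellTiter-Glo 2.0 luminescence gave viability, which was converted to inhibition. Vehicle wells were set to 0 and blank wells to 1. Combination Emax is the second-highest inhibition in the matrix, and Bliss excess is the observed combination effect minus the expected EA + EB − EA·EB, where EA and EB are the single-agent effects.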

Assay [2] concerns CAS-1 (Glioblastoma). The essentials:
as §1

Assay [3] has as its system JSC-1 (B-Cell Non-Hodgkin's Lymphoma). The procedure, abridged:
as §1

Assay [4] has as its system CAL-29 (Bladder Carcinoma). The procedure, abridged:
as §1

In assay [5] the test system is 8-MG-BA (Glioblastoma). The procedure, abridged:
as §1

Assay [6] relates to NCI-H1666 (Lung Adenocarcinoma). The procedure, abridged:
as §1

The test system of assay [7] is NCI-H2066 (Squamous Cell Lung Carcinoma). The essentials: as §1
Assay [8] concerns KARPAS-422 (B-Cell Non-Hodgkin's Lymphoma). The procedure, abridged: as §1
Assay [9] concerns NCI-H1650 (Lung Adenocarcinoma). The procedure, abridged: as §1
Assay [10] relates to SISO (Cervical Carcinoma). The procedure, abridged:
as §1

Assay [11] has as its system COLO-320-HSR (Colorectal Carcinoma). The essentials: as §1
Assay [12] deals with NCI-H1581 (Non-Small Cell Lung Carcinoma). The essentials:
as §1

The test system of assay [13] is BICR22 (Oral Cavity Carcinoma). The procedure, abridged: as §1
Assay [14] has as its system ONS-76 (Other Solid Carcinomas). The procedure, abridged:
as §1

Assay [15] deals with HCC1954 (Breast Carcinoma). The essentials:
as §1

Assay [16] relates to PA-1 (Ovarian Carcinoma). The procedure, abridged: as §1
The test system of assay [17] is A498 (Kidney Carcinoma). The procedure, abridged: as §1
The subject of assay [18] is TT (Thyroid Gland Carcinoma). The essentials: as §1
For assay [19], the system named is IGR-37 (Melanoma). The essentials: as §1
Assay [20] deals with COR-L311 (Small Cell Lung Carcinoma). The essentials: as §1

With `CC1(C)CCC(CN2CCN(c3ccc(C(=O)NS(=O)(=O)c4ccc(NCC5CCOCC5)c([N+](=O)[O-])c4)c(Oc4cnc5[nH]ccc5c4)c3)CC2)=C(c2ccc(Cl)cc2)C1` [Venetoclax] + CN(C)CCCOc1ccc(-c2ccc3ncc4c(c3c2)n(C2CCOCC2)c(=O)n4C)cn1 [AZD0156] (first compound max 1 µM, 7x7, partner max 1 µM), the “combination Emax” value is 0.288 in assay [1]; 0.239 in assay [2]; 0.141 in [3]; 0.25 in assay [4]; 0.171 in assay [5]; 0.225 in [6]. For the same compound, the “combination Emax” value in assay [7] is 0.156; in assay [8], 0.873; in assay [9] it was 0.104; in assay [10], 0.148; in assay [11] it was 0.198; in [12], 0.182. For the same compound, the “combination Emax” value was 0.337 in assay [13]; 0.725 in [14]; 0.162 in assay [15]; 0.3 in assay [16]; 0.263 in assay [17]; 0.594 in assay [18]. Further, the “combination Emax” value was found to be 0.503 in assay [19] and 0.604 in assay [20].

Turning to `CC1(C)CCC(CN2CCN(c3ccc(C(=O)NS(=O)(=O)c4ccc(NCC5CCOCC5)c([N+](=O)[O-])c4)c(Oc4cnc5[nH]ccc5c4)c3)CC2)=C(c2ccc(Cl)cc2)C1` [Venetoclax] + COc1cc(Nc2ncc3c(n2)-c2ccc(Cl)cc2C(c2c(F)cccc2OC)=NC3)ccc1C(=O)O [Alisertib] (first compound max 1 µM, 7x7, partner max 10 µM), the “combination Emax” value in assay [1] is 0.759; in assay [2] it was 0.744; in [3], 0.377; in assay [4], 0.364; in assay [5], 0.447; in [6], 0.501. In addition, the “combination Emax” value in assay [7] was determined as 0.285; in assay [8], 0.858; in assay [9], 0.493; in assay [10], 0.543; in assay [11], 0.296; in assay [12] it was 0.698. In addition, the “combination Emax” value in [13] is 0.501; in assay [14] it was 0.553; in [15] it was 0.36; in assay [16] it was 0.927; in [17], 0.386; in assay [18], 0.573. In addition, the “combination Emax” value came to 0.486 in assay [19] and 0.842 in [20].

For `CC1(C)CCC(CN2CCN(c3ccc(C(=O)NS(=O)(=O)c4ccc(NCC5CCOCC5)c([N+](=O)[O-])c4)c(Oc4cnc5[nH]ccc5c4)c3)CC2)=C(c2ccc(Cl)cc2)C1` [Venetoclax] + C[C@@H]1COCCN1C2=NC(=NC(=C2)C3(CC3)[S@](=N)(=O)C)C4=C5C=CNC5=NC=C4 [AZD6738] (first compound max 1 µM, 7x7, partner max 10 µM), the “combination Emax” value in [1] is 1; in assay [2] it was 0.623; in assay [3], 0.882; in assay [4], 0.689; in assay [5], 0.792; in [6] it was 0.424. The “combination Emax” value came out at 0.384 in assay [7]; 0.956 in [8]; 0.402 in assay [9]; 0.532 in assay [10]; 0.561 in assay [11]; 0.451 in assay [12]. Further, the “combination Emax” value stood at 0.768 in assay [13]; 0.865 in assay [14]; 0.55 in assay [15]; 0.827 in [16]; 0.514 in [17]; 0.702 in assay [18]. Moreover, the “combination Emax” value in assay [19] is 0.793; in assay [20], 0.694.

For `CC1(C)CCC(CN2CCN(c3ccc(C(=O)NS(=O)(=O)c4ccc(NCC5CCOCC5)c([N+](=O)[O-])c4)c(Oc4cnc5[nH]ccc5c4)c3)CC2)=C(c2ccc(Cl)cc2)C1` [Venetoclax] + C[C@@H](Nc1cc(F)cc(F)c1)c1cc(C(=O)N(C)C)cc2c(=O)cc(N3CCOCC3)oc12 [AZD8186] (first compound max 1 µM, 7x7, partner max 3 µM), the “combination Emax” value in assay [1] amounted to 0.302; in assay [2] it was 0.399; in assay [3] it was 0.0196; in assay [4], 0.113; in assay [5], 0.133; in assay [6] it was 0.339. The “combination Emax” value worked out at 0.215 in assay [7]; 0.98 in assay [8]; 0.255 in [9]; 0.11 in [10]; 0.135 in assay [11]; 0.182 in [12]. The “combination Emax” value in [13] is 0.15; in assay [14] it was 0.746; in assay [15] it was 0.0913; in assay [16] it was 0.682; in assay [17], 0.632; in assay [18], 0.531. Besides, the figures for the “combination Emax” value in assay [19] and in [20] were 0.46 and 0.768, respectively.

In the case of `CC1(C)CCC(CN2CCN(c3ccc(C(=O)NS(=O)(=O)c4ccc(NCC5CCOCC5)c([N+](=O)[O-])c4)c(Oc4cnc5[nH]ccc5c4)c3)CC2)=C(c2ccc(Cl)cc2)C1` [Venetoclax] + Cc1cc2ncnn2cc1Nc1ncc2c(n1)n(C1CCOCC1)c(=O)n2C [AZD7648] (first compound max 1 µM, 7x7, partner max 10 µM), the “combination Emax” value in [1] came to 0.417; in assay [2], 0.279; in assay [3], 0.205; in assay [4] it was 0.209; in [5], 0.133; in assay [6], 0.232. The “combination Emax” value in assay [7] came to 0.273; in assay [8] it was 0.897; in [9], 0.108; in assay [10], 0.164; in [11], 0.174; in [12], 0.222. For the same compound, the “combination Emax” value came to 0.291 in assay [13]; 0.764 in assay [14]; 0.336 in assay [15]; 0.473 in [16]; 0.381 in [17]; 0.601 in assay [18]. In addition, the “combination Emax” value in assay [19] was determined as 0.556; in assay [20], 0.671.

`CC1(C)CCC(CN2CCN(c3ccc(C(=O)NS(=O)(=O)c4ccc(NCC5CCOCC5)c([N+](=O)[O-])c4)c(Oc4cnc5[nH]ccc5c4)c3)CC2)=C(c2ccc(Cl)cc2)C1` [Venetoclax] + Cn1cnc2c(F)c(Nc3ccc(Br)cc3Cl)c(C(=O)NOCCO)cc21 [Selumetinib] (first compound max 1 µM, 7x7, partner max 3 µM): the “combination Emax” value in assay [1] came out at 0.216; in [2], 0.158; in [3], 0.271; in assay [4], 0.245; in assay [5], 0.124; in assay [6], 0.575. Besides, the “combination Emax” value in [7] amounted to 0.191; in assay [8], 0.793; in [9], 0.0531; in assay [10], 0.196; in [11], 0.083; in [12], 0.32. The “combination Emax” value stood at 0.141 in [13]; 0.536 in assay [14]; 0.186 in assay [15]; 0.318 in assay [16]; 0.433 in [17]; 0.436 in assay [18]. In addition, the “combination Emax” value in assay [19] came out at 0.879; in [20], 0.635.
